Source: ChEMBL document CHEMBL1201862, “PubChem BioAssay data set” (2004)
Active and inactive are the calls of the source.

Legend:
[1] = biological target: T1, Probable nicotinate-nucleotide adenylyltransferase (Staphylococcus aureus (strain N315), UniProt P65502); type: functional, Staphylococcus aureus subsp. aureus N315;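 on IC50 Mean: confirmatory dose-response retesting of NadD inhibitor hits first found in an ultra-high-throughput screen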
[2] = biological target: T1, Probable nicotinate-nucleotide adenylyltransferase; type: functional, Staphylococcus aureus subsp. aureus N315; conditions: read-out: IC50_Mean
[3] = AlphaScreen signal interference compounds, dose response, artefact control for ARNT-TACC3 interaction inhibitor project, biochemical, luminescence, cherry-pick (AID 651705); type: functional;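 further: AlphaScreen bead proximity signal that flags compounds interfering with the detection technology; potency reflects signal decrease which marks the compound as an assay artifact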
Paired box protein Pax-8 = Paired box protein Pax-8 (Homo sapiens, UniProt Q06710); test: inhibitors of PAX8-driven TPO luciferase reporter, dose response, RMG-I cells, cherry-pick (AID 687027); type: functional, cell-based;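 further: luciferase reporter driven by Pax8 target thyroperoxidase promoter measured by SteadyGlo luminescence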
Paired box protein Pax-8, sequence (Q06710 whole entry): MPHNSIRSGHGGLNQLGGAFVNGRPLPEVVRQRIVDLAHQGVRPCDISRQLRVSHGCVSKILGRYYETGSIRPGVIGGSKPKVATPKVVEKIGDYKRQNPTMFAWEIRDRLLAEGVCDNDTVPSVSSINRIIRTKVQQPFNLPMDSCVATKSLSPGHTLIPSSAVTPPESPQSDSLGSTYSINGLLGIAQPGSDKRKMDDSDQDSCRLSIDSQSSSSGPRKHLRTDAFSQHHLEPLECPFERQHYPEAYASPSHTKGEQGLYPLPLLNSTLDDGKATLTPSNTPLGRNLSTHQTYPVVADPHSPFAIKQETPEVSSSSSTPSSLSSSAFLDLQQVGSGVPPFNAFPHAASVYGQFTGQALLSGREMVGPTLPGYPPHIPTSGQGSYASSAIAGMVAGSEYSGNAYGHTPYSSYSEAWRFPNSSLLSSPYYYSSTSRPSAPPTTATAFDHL

[4] = NIH:OVCAR-3 ovarian cancer cell cytotoxicity, dose response, PAX8 inhibitor project, plate reader, dry powder samples (AID 743044); type: functional, cell-based
[5] = IGROV1 ovarian cancer cell cytotoxicity, dose response, PAX8 inhibitor project, plate reader, dry powder samples (AID 743043); type: functional, cell-based; conditions: IGROV-1
[6] = P. falciparum Dd2 growth inhibitors, dose response, SYBR Green, dry powder samples, set 9 (AID 1159568); type: functional, cell-based
[7] = ADAM10 inhibitors, peptide cleavage, dose response, biochemical, QFRET (AID 743254);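 further: ADAM10 enzyme with the DM2 quenched FRET peptide as substrate; EDANS fluorescence gain as the protease cuts the substrate; inhibitor potency against ADAM10 proteolytic activity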
[8] = biological target: Disintegrin and metalloproteinase domain-containing protein 17 (Homo sapiens, UniProt P78536); test: ADAM17 protease inhibitors, dose response, counter-screen for ADAM10 exosite inhibitor project, biochemical, quenched FRET substrate (AID 743253)
Disintegrin and metalloproteinase domain-containing protein 17, sequence (P78536 whole entry, the tested form may be a part): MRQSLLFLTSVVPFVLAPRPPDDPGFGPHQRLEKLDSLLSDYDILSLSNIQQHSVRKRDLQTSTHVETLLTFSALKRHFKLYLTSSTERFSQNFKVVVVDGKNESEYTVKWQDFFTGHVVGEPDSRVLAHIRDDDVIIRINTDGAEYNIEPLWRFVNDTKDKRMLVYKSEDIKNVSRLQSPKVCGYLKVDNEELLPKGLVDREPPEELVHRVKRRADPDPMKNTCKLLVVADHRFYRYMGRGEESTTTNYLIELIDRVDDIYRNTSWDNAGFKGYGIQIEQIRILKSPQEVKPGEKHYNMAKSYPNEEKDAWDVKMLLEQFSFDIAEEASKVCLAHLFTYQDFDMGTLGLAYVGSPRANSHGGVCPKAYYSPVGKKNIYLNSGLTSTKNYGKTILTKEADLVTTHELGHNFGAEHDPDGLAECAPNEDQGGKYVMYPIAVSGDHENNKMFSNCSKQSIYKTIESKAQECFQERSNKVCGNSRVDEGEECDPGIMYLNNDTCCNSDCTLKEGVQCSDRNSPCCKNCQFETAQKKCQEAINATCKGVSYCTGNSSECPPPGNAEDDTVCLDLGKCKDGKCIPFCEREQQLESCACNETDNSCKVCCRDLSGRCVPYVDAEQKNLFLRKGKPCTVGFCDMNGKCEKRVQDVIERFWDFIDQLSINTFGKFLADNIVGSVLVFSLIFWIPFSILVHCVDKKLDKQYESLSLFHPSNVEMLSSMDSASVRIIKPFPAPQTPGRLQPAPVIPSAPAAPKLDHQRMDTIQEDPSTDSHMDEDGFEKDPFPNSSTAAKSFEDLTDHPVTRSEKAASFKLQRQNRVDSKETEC

[9] = Luminescence Cell-Based Dose Retest to Confirm Inhibitors of Cancer Stem Cells. [Related pubchem assays (depositor defined):AID2717, AID2721]; type: functional; conditions: Homo sapiens
Streptococcus = test: Group A Streptococcus viability loss, dose response, counter-screen for streptokinase expression inhibitor project, luminescence, BacTiterGlo (AID 1915); type: functional, organism-based;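 further: potency for reduction of bacterial viability or growth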
[10] = biological target: COUP transcription factor 2 (Homo sapiens, UniProt P24468); test: Luminescence-based cell-based high throughput dose response assay to identify inhibitors of COUP-TFII (NR2F2).; type: functional;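 further: HEK293 cells transiently cotransfected with COUP-TFII expression vector and reporter; luciferase reporter luminescence driven by COUP-TFII from the pX2-168 reporter plasmid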
COUP transcription factor 2, sequence (P24468 whole entry): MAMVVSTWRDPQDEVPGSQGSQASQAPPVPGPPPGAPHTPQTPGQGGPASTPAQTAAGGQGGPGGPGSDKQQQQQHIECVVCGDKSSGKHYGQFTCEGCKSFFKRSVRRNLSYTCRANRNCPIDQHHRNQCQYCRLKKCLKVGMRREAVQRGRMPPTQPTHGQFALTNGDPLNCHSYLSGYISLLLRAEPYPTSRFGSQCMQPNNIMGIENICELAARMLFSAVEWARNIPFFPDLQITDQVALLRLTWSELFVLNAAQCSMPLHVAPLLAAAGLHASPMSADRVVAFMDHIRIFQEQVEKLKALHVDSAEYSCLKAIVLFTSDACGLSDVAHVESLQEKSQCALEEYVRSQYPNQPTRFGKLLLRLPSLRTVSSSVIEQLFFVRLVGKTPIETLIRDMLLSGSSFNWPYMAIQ

[11] = system: Streptococcus sp. 'group A'; test: growth inhibition of control SK(-) GAS strain, dose response, counter-screen for streptokinase expression inhibitor project, luminescence, kanamycin, BacTiterGlo, confirmation (AID 1900); type: functional, organism-based
[12] = Shn3 3'UTR reporter inhibitors, dose response, cell-based, Clone20 osteoblasts, firefly luciferase, cherry-picked (AID 624132); type: functional;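 further: firefly luciferase luminescence from reporter carrying the Shn3 3'UTR in osteoblasts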
INS1 = test: beta cell apoptosis inhibitors, cytokine rescue, dose response, luminescence, retest (AID 449756); type: functional, cell-based; conditions: Rattus norvegicus;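 further: cell death triggered by IL-1 beta plus TNF-alpha plus IFN-gamma mixture; protective hits raise ATP signal compared with cytokine alone wells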
[13] = HepG2 cell cytotoxicity, dose response, cytotoxicity control for Shn3 inhibitor project, CellTiter-Glo, cherry-picked (AID 624134); type: functional, cell-based
[14] = control 3'UTR Renilla luciferase suppression, dose response, counter-screen for Shn3 inhibitor project, cell-based, Clone20-Shn3RL, cherry-picked (AID 624133); type: functional
[15] = biological target: Luciferin 4-monooxygenase (Photinus pyralis, UniProt P08659); test: firefly luciferase enzyme inhibitors, dose response, biochemical, luminescence (AID 1891)
Luciferin 4-monooxygenase, sequence (P08659 whole entry): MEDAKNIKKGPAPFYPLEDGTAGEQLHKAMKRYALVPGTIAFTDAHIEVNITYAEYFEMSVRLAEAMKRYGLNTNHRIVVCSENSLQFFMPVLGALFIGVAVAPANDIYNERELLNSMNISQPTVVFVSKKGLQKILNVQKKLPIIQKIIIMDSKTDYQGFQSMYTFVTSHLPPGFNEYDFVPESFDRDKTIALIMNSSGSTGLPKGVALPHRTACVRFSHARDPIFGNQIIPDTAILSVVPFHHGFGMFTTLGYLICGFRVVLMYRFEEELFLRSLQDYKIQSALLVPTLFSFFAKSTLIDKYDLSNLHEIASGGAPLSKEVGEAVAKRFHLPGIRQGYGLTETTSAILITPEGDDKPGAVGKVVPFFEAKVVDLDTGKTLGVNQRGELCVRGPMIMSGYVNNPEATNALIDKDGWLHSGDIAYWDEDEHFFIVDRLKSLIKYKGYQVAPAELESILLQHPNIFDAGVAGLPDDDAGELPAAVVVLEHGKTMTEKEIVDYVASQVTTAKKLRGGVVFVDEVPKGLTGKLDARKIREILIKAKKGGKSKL

Protein Tat = Protein Tat (Human immunodeficiency virus type 1 group M subtype B (isolate HXB2)(HIV-1), UniProt P04608); type: functional;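 further: tat binding to TAR RNA read out by fluorescence polarization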
Protein Tat, sequence (P04608 whole entry): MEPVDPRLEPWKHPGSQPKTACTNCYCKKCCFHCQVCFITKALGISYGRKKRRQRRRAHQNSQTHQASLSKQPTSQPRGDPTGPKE

[16] = Luminescence Cell-Based Dose Confirmation HTS to Identify Inhibitors of Platelet Dense Granule Release. [Related pubchem assays: 1663 (Primary HTS), 1678 (Summary of Project)]; type: functional
[17] = biological target: T2, Oxysterols receptor LXR-beta (Homo sapiens, UniProt P55055); type: functional, cell-based;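 further: agonist activity at LXR measured by a cell-based luminescence readout across a dose range, run as a counterscreen for daf-12 agonists; HEK293 cells with Gal4-LXR fusion and GAL4-driven luciferase reporter; potency for activation of Gal4-LXR reporter so compounds are agonists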
T2 sequence (P55055 whole entry): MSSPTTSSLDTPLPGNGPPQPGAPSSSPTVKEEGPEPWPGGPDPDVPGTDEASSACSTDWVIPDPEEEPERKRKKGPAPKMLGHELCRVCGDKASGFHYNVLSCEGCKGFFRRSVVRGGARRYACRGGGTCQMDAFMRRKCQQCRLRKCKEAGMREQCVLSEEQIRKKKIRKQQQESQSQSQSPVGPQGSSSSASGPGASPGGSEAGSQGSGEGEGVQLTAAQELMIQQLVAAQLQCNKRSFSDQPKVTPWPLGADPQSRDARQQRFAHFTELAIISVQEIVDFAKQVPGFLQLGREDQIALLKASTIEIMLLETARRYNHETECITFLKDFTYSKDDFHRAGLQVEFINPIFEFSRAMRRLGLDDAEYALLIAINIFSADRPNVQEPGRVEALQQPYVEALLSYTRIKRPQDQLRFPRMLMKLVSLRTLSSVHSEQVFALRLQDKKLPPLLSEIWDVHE

[18] = cytotoxicity toward HT-29 cells – cell-based, CellTiter-Glo luminescence, IC50, dose response (AID 1117330); type: functional
[19] = cytotoxicity toward HCT116 cells – cell-based, CellTiter-Glo luminescence, IC50, dose response (AID 1117332); type: functional; conditions: HCT-116
[20] = HeLa 2N DNA content increase, dose response, cell-based, IC50 (AID 1117349); type: functional
[21] = Concentration-dependent survival of SW480 colon cancer line, luminescence detection with CellTiter-Glo, half-maximal inhibitory concentration (AID 1117338); type: functional
[22] = HeLa 4N DNA content increase, dose response, cell-based, IC50 (AID 1117351); type: functional
[23] = HCT116 cell viability decrease, GSK3B pretreatment – CellTiter-Glo, IC50, dose response (AID 1117339); type: functional; conditions: HCT-116
[24] = CellTiter-Glo luminescent dose response of DLD-1 viability loss (AID 1117352); type: functional
[25] = RKO cell viability reduction, dose response, CellTiter-Glo luminescence (AID 1117322); type: functional
[26] = cytotoxicity toward Colo320 cells – cell-based, CellTiter-Glo luminescence, IC50, dose response (AID 1117334); type: functional; conditions: COLO 320

T1 sequence (P65502 whole entry): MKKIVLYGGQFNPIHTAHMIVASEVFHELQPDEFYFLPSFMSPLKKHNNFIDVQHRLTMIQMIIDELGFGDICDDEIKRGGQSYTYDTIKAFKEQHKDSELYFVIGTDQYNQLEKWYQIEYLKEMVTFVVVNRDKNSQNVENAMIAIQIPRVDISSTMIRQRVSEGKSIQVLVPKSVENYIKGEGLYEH

Nc1nc(COc2ccccc2C=O)nc(Nc2ccccc2)n1
IC50 [1]: 36.7 µM (active) | IC50 [2]: 52.1 µM (active)

COc1ccc(Nc2nnc(-c3ccc(C(N)=O)cc3)c3ccccc23)cc1
AC50 [3]: 104 µM (active)

Cc1ccc(S(=O)(=O)Nc2ccc3c(c2)C(=O)N([C@H](C)CO)C[C@@H](C)[C@@H](CN(C)Cc2ccc(C(F)(F)F)cc2)OCCCC[C@H](C)O3)cc1
AC50 (Paired box protein Pax-8): 4.18 µM (active) | AC50 [4]: 18.1 µM (active) | AC50 [5]: 43.5 µM (active)

CCc1csc(N2[C@H](CO)[C@H](c3ccccc3)[C@@H]2CNC)n1
AC50 [6]: 7.33 µM (active)

O=C(CSc1nnc(-c2cccs2)n1Cc1ccco1)Nc1ccc(Oc2ccccc2)cc1
IC50 [7]: > 69.5 µM (inactive) | IC50 [8]: > 69.5 µM (inactive)

Cc1ccc(S(=O)(=O)N2CCC(=O)N2)cc1
IC50 [7]: > 69.6 µM (inactive) | IC50 [8]: > 69.6 µM (inactive)

O=C(NC12CC3CC(CC(C3)C1)C2)c1ccc(-c2ccccc2Cl)o1
AC50 [9]: 3.35 µM (active) | AC50 [3]: 80.2 µM (active)

CCOC(=O)c1cnc(-n2nc(C)cc2C)nc1NC1CCCC1
EC50 (Streptococcus): 5.64 µM (active) | IC50 [10]: 7.91 µM (active) | EC50 [11]: 2.69 µM (active) | AC50 [12]: 4.4 µM (active) | AC50 (INS1): 2.73 µM (active) | AC50 [13]: 8.6 µM (active) | AC50 [14]: 7.1 µM (active)

O=C(NC1CCCC1)C(c1ccco1)N(Cc1ccccc1)C(=O)c1csnn1 (centres undefined)
EC50 [15]: > 112 µM (not active) | IC50 (Protein Tat): > 100 µM (active) | EC50 [16]: > 112 µM (not active)

Cc1cc2nc(-c3cccnc3SCC(=O)NCc3ccco3)[nH]c2cc1C
EC50 [17]: > 67.6 µM (inactive)

COc1cc(NCc2ccc3nc(N)nc(N)c3c2C)cc(OC)c1OC
IC50 [18]: 0.0212 µM (active) | IC50 [19]: 0.0231 µM (active) | IC50 [20]: > 10 µM (inactive) | IC50 [21]: 0.0591 µM (active) | IC50 [22]: > 10 µM (inactive) | IC50 [23]: 0.00392 µM (active) | IC50 [24]: 0.195 µM (active) | IC50 [25]: 0.00272 µM (active) | IC50 [26]: 0.386 µM (active)

C[C@H](CO)N1C[C@H](C)[C@H](CN(C)S(=O)(=O)c2ccc(F)cc2)OCCCC[C@H](C)Oc2ccc(N(C)C)cc2C1=O
AC50 [6]: 5.45 µM (active)
